# Legend:
# [1] = target: Multidrug resistance-associated protein 1 (Homo sapiens) (UniProt P33527); test: Effective concentration to inhibit MRP1 in potentiation assay
# [2] = target: Multidrug resistance-associated protein 1 (Homo sapiens) (UniProt P33527); test: as above; remark: listed apart in the source
# Sequence of Multidrug resistance-associated protein 1 (Homo sapiens) (P33527 whole entry, looked up): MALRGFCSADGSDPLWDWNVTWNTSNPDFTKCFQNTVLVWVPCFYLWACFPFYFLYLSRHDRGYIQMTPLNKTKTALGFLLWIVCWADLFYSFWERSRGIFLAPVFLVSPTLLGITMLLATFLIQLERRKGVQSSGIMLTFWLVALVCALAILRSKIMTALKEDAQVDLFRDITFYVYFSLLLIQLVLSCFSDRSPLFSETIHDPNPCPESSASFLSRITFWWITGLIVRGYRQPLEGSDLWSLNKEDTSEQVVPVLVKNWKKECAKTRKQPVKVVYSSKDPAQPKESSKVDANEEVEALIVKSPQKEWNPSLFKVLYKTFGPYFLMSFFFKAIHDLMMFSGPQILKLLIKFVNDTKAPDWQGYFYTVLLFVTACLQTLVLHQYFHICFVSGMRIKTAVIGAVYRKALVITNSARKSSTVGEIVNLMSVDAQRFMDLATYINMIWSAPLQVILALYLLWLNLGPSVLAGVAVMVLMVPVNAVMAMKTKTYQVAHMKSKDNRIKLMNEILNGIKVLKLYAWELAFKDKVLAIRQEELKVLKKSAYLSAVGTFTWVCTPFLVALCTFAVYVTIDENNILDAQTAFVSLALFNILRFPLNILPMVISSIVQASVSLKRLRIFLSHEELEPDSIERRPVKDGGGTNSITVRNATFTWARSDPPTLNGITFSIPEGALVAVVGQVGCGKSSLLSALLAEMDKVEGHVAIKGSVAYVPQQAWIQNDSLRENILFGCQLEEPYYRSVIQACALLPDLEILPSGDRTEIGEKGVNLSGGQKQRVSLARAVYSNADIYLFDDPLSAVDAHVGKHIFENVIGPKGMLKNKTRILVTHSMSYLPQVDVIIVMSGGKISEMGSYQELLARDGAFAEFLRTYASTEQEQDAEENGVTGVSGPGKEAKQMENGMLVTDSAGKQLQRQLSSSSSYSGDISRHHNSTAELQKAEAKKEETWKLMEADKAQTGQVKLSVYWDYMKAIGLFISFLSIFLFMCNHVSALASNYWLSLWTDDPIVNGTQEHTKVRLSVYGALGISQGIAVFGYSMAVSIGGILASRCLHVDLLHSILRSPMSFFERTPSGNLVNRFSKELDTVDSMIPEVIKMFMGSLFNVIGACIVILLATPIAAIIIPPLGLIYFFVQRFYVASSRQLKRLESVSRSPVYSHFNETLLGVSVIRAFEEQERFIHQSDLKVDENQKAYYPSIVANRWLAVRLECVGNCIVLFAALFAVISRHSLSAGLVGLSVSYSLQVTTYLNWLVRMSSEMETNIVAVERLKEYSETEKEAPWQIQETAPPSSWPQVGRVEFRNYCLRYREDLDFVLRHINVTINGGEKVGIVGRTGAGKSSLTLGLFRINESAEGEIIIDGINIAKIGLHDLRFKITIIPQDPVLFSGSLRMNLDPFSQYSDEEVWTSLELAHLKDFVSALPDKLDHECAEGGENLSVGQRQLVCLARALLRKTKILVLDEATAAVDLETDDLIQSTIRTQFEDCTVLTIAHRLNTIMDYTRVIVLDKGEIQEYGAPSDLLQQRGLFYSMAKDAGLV
Compound,EC50 [1],EC50 [2]
"COc1cccc(CNC(=O)c2c3n(c4c(N5CCN(CCc6ccc(F)c(F)c6)CC5)ncnc24)CCCC3)c1OC [4-{4-[2-(3,4-Difluoro-phenyl)-ethyl]-piperazin-1-yl}-6,7,8,9-tetrahydro-pyrimido[4,5-b]indolizine-10-carboxylic acid 2,3-dimethoxy-benzylamide]",150 nM,
"O=C(NCc1ccccn1)c1c2n(c3c(N4CCN(CCc5ccc(F)c(F)c5)CC4)ncnc13)CCCC2 [4-{4-[2-(3,4-Difluoro-phenyl)-ethyl]-piperazin-1-yl}-6,7,8,9-tetrahydro-pyrimido[4,5-b]indolizine-10-carboxylic acid (pyridin-2-ylmethyl)-amide]",,97 nM
"NC(=O)c1c2n(c3c(N4CCN(CCc5ccc(F)c(F)c5)CC4)ncnc13)CCCC2 [4-{4-[2-(3,4-Difluoro-phenyl)-ethyl]-piperazin-1-yl}-6,7,8,9-tetrahydro-pyrimido[4,5-b]indolizine-10-carboxylic acid amide]",,117 nM

# Source: BindingDB's records for doi:10.1021/jm031011g (Xenova, 2004)
